Measurements reported in BigSolDB 2.1.

O=C(O)c1ccccc1Nc1ccccc1
solubility (mole fraction)
Conditions | in acetone | in acetonitrile | in ethanol | in ethyl acetate | in isopropanol | in methanol | in n-butanol | in n-propanol | in toluene
283.15 K | 0.019 | 0.00147 | 0.00703 | 0.012 | 0.00593 | 0.00331 | 0.00849 | 0.00734 | 0.00238
285.65 K | 0.0202 | 0.00171 | 0.00768 | 0.0133 | 0.00692 | 0.00381 | 0.00972 | 0.00831 | 0.00275
288.15 K | 0.0223 | 0.00197 | 0.00854 | 0.0156 | 0.00805 | 0.00439 | 0.0112 | 0.00975 | 0.00321
290.65 K | 0.0252 | 0.00228 | 0.00958 | 0.0182 | 0.00933 | 0.00521 | 0.013 | 0.0114 | 0.00374
293.15 K | 0.0279 | 0.00268 | 0.0112 | 0.0213 | 0.0107 | 0.0061 | 0.0147 | 0.0132 | 0.00439
295.65 K | 0.0304 | 0.00311 | 0.013 | 0.0235 | 0.0124 | 0.00723 | 0.0167 | 0.0152 | 0.00502
298.15 K | 0.0335 | 0.00373 | 0.0152 | 0.0267 | 0.0144 | 0.00825 | 0.0187 | 0.0172 | 0.00573
300.65 K | 0.0361 | 0.00425 | 0.0171 | 0.0301 | 0.0164 | 0.00944 | 0.0209 | 0.0194 | 0.00648
303.15 K | 0.0399 | 0.00491 | 0.0196 | 0.034 | 0.0184 | 0.0106 | 0.0233 | 0.0216 | 0.00742
305.65 K | 0.0427 | 0.00556 | 0.0219 | 0.0373 | 0.0208 | 0.0119 | 0.0256 | 0.0239 | 0.00841
308.15 K | 0.0465 | 0.00617 | 0.0249 | 0.0414 | 0.0232 | 0.0129 | 0.0283 | 0.0266 | 0.0096
310.65 K | 0.0499 | 0.00695 | 0.0276 | 0.0458 | 0.0254 | 0.0145 | 0.0311 | 0.0292 | 0.0109
313.15 K | 0.0537 | 0.0078 | 0.0311 | 0.0503 | 0.0281 | 0.0164 | 0.0338 | 0.0322 | 0.0124
315.65 K | 0.0582 | 0.00892 | 0.0339 | 0.0555 | 0.0309 | 0.0186 | 0.0367 | 0.035 | 0.014
318.15 K | 0.063 | 0.0102 | 0.0374 | 0.0604 | 0.034 | 0.0212 | 0.0396 | 0.0383 | 0.0155
